From patent publication US20230012374A1, “PROCESS FOR PRODUCING HERBICIDE AND INTERMEDIATE THEREOF” (KUMIAI CHEMICAL INDUSTRY CO., LTD., priority 2019, published 2023)

Test: Bulk specific gravity of pyroxasulfone crystals
Format: physicochemical
Details: crystal of pyroxasulfone

Row | SMILES | bulk specific gravity
1 | Cn1nc(C(F)(F)F)c(CS(=O)(=O)C2=NOC(C)(C)C2)c1OC(F)F [Comparative Example 3-1, 3-[(5-difluoromethoxy-1-methyl-3-trifluoromethylpyrazol-4-yl)methylsulfonyl]-4,5-dihydro-5,5-dimethylisoxazole] | 0.53 g/mL
2 | Cn1nc(C(F)(F)F)c(CS(=O)(=O)C2=NOC(C)(C)C2)c1OC(F)F [Example 3-1, 3-[(5-difluoromethoxy-1-methyl-3-trifluoromethylpyrazol-4-yl)methylsulfonyl]-4,5-dihydro-5,5-dimethylisoxazole] | 1.04 g/mL
